The test system of data set [1] is male spontaneously hypertensive rat (SHR). Nature of the data set: Antihypertensive effect (systolic blood pressure, tail cuff method, oral, SHR). Type of data set: in vivo. The settings on record: systolic blood pressure at 2, 4, 6 and 8 hours. As to the method: After oral administration of the test compound dissolved in a H2 O-PEG 400 solvent mixture (H2 O:PEG 400 (w/w)=1:3) to the male spontaneously hypertensive rat (SHR), the systolic blood pressure was measured at 2, 4, 6 and 8 hours after the administration of the test compounds by a tail cuff method. Prior to the measurement, rats were warmed at 50° C. for five minutes. The effectively antihypertensive activities were observed also at 8 hours after the administraton of the test compounds. Test 2: Acute toxicity test

The subject of data set [2] is taenia caecum of guinea pig. The experiment in a line: Calcium antagonistic effect (relaxation of CaCl2-induced contraction in K+-depolarized taenia caecum). The class given is cell-based. The settings on record: Cavia porcellus; -log ID50 (M); 50% relaxation relative to maximum relaxation by 10^-4 M papaverine; 37° C, 10 mM CaCl2; read-out: pID50 (calcium antagonistic effect) (converted). How it is done:
10 mm in situ length of taenia caecum of guinea pig was suspended at a tension of 1 g in a 20 ml organ bath filled with a physiological salt solution (NaCl: 135 mM, KCl: 5 mM etc.).
This solution was bubbled with a gas mixture of 95% O2 -5% CO2 and kept at 37° C. Then, the preparation was depolarized by a K^+ rich solution (NaCl: 40 mM, KCl: 100 mM). After 10-20 minutes equilibration period, 10 mM of CaCl2 was added to the bathing solution. The contraction was produced, and then the test compound applied cumulatively. The relaxation produced was expressed as percentage of the maximum relaxation produced by 10^-4 M papaverine, and the concentration of the compound producing 50% relaxation, i.e. ID50 (M), was calculated.

A short description of data set [3]: Acute toxicity test (oral LD50). The settings on record: mouse, in vivo; oral (5% solution), male ddY mice, seven days, Litchfield-Wilcoxon. As to the method:
ddY mice (.male., 4 weeks old) were divided into groups of five mice and the test compound dissolved in purified water was administered orally (5% solution) (p.o) to the male ddY mice.
After seven days, LD50 values were calculated from the dead […] recorded in the individual dosage groups by the method of Litchfield-Wilcoxon.

Counter-ions that a name gives are not always drawn.

7 molecules from US4885284A, “Dihydropyridine-5-phosphonic acid cyclic propylene ester” (Nissan Chemical Industries Ltd., priority 1986, dated 1989) can be followed below.

As to `CC1=C(C(=O)OCCN2CCN(C(c3ccccc3)c3ccccc3)CC2)C(c2cccc(Cl)c2Cl)C(P2(=O)OCC(C)(C)CO2)=C(C)N1` (centres unmarked) [Dihydrochloride of Example 2], the “Antihypertensive effect, maximum decrease” value in data set [1] (dose 10 mg/kg) was determined as 37%. For the same molecule, the IC50 in data set [2] was 9.77e-08 M. In data set [3], this molecule gave an LD50 at 168 h greater than 400 mg/kg.

In the case of `CC1=C(C(=O)OCCN(Cc2ccccc2)c2ccccc2)C(c2cccc([N+](=O)[O-])c2)C(P2(=O)O[C@H](C)C[C@@H](C)O2)=C(C)N1` (some centres unmarked) [Hydrochloride of Example 7], the “Antihypertensive effect, maximum decrease” value in data set [1] (dose 15 mg/kg) was determined as 34%. The IC50 in data set [2] was 6.76e-09 M. This molecule returned an LD50 at 168 h in data set [3] greater than 600 mg/kg.

For the molecule `CC1=C(C(=O)OCCCN2CCN(C(c3ccc(F)cc3)c3ccc(F)cc3)CC2)C(c2cccc(Cl)c2Cl)C(P2(=O)OCC(C)(C)CO2)=C(C)N1` (centres unmarked) [Dihydrochloride of Example 3], the “Antihypertensive effect, maximum decrease” value in data set [1] (dose 15 mg/kg) is given as 36%. The IC50 in data set [2] was 1.74e-07 M. For the same molecule, the LD50 at 168 h in data set [3] is greater than 400 mg/kg.

For `CC1=C(C(=O)OCCN(Cc2ccccc2)c2ccccc2)C(c2cccc([N+](=O)[O-])c2)C(P2(=O)OC(C)(C)CC(C)(C)O2)=C(C)N1` (centres unmarked) [Hydrochloride of Example 5], the “Antihypertensive effect, maximum decrease” value in data set [1] (dose 10 mg/kg) turned out to be 40%. The same molecule returned an LD50 at 168 h in data set [3] greater than 300 mg/kg.

Regarding `CC1=C(C(=O)OCCN(Cc2ccccc2)c2ccccc2)C(c2cccc([N+](=O)[O-])c2)C(P2(=O)OCC(C)(C)CO2)=C(C)N1` (centres unmarked) [Hydrochloride of Example 1], in data set [1] (dose 15 mg/kg), the “Antihypertensive effect, maximum decrease” value came out at 36%. In addition, the IC50 in data set [2] is 6.76e-09 M. The molecule further showed an LD50 at 168 h in data set [3] greater than 600 mg/kg.

As for `CC1=C(C(=O)OC(C)CN(Cc2ccccc2)c2ccccc2)C(c2cccc([N+](=O)[O-])c2)C(P2(=O)OC(C)(C)CC(C)(C)O2)=C(C)N1` (centres unmarked) [Hydrochloride of Example 4], the “Antihypertensive effect, maximum decrease” value in data set [1] (dose 20 mg/kg) is listed as 38%. Also, in data set [2], the IC50 was 1.26e-07 M. This molecule yielded an LD50 at 168 h in data set [3] greater than 300 mg/kg.

For `CC1=C(C(=O)OC(C)CN(Cc2ccccc2)c2ccccc2)C(c2cccc(Cl)c2Cl)C(P2(=O)O[C@H](C)C[C@@H](C)O2)=C(C)N1` (some centres unmarked) [Hydrochloride of Example 6], in data set [1] (dose 10 mg/kg), the “Antihypertensive effect, maximum decrease” value was 28%. Besides, the IC50 in data set [2] is 1.05e-07 M. This molecule had an LD50 at 168 h in data set [3] greater than 300 mg/kg.
